# Experimental data reported in US6864086B2, “Nitric oxide-scavenging system for culturing oocytes, embryos, or other cells” (Board of Supervisors of Louisiana State University and …, priority 1998, dated 2005).
# Tested on: bovine embryos
# Assay: Example 9: L-NAME (1 or 1000 nM) added to mBECM containing serum and Hb, pre-hatching development
# Format: cell-based
# Parameters: key to Least square mean of embryos developed to 16-cell / Least square mean of embryos developed to Blastocyst / Least square mean of embryos developed to 2-cell / Least square mean of embryos developed to 8-cell / Least square mean of embryos developed to Morula: fraction developed; each embryo scored 1 = developed, 0 = not developed
# Details: for Number of embryos developed to 2-cell / Number of embryos developed to 8-cell / Number of embryos developed to 16-cell / Number of embryos developed to Morula / Number of embryos developed to Blastocyst: 96 embryos; for Number of embryos developed to 2-cell / Least square mean of embryos developed to 2-cell: 48 h; for Number of embryos developed to 8-cell / Least square mean of embryos developed to 8-cell: 60 h; for Number of embryos developed to 16-cell / Least square mean of embryos developed to 16-cell: 120 h; for Number of embryos developed to Morula / Least square mean of embryos developed to Morula: 144 h; for Number of embryos developed to Blastocyst / Least square mean of embryos developed to Blastocyst: 192 h
# Procedure: The basic medium used for maturation of oocytes was tissue culture medium (TCM)-199 with Earle's salts, buffered with 25 mM HEPES (Gibco BRL, Grand Island, N.Y.) and supplemented with 10% (v/v) heat-inactivated fetal bovine serum (FBS; Hyclone Laboratories, Logan, Utah), 1 μg/ml estradiol-17β (NOBL Laboratories, Sioux Center, Iowa), 3 μg/ml bovine FSH (NOBL Laboratories), 6 μg/ml bovine LH (NOBL Laboratories), and 25 μg/ml gentamycin (Sigma Chemical Co., St. Louis, Mo.). The basic medium used for treatment of spermatozoa and fertilization of oocytes was a modified Tyrode's medium (J. Parrish et al., Capacitation of bovine sperm by heparin. Biol. Reprod. 38:1171-1180 (1988)), supplemented with 0.25 mM sodium pyruvate (Gibco BRL), 6 mg/ml fatty acid (FA)-free BSA (No. A-6003, Sigma), 15 μg/ml calcium heparin from porcine intestinal mucosa (183 USP/mg; H-8398, Sigma), and 25 μg/ml gentamycin. Modified bovine embryo culture medium (mBECM) containing 10 μM β-mercaptoethanol was used for culture of embryos, as described in J. Lim et al., “Roles of growth factors in the development of bovine embryos fertilized in vitro and cultured singly in a defined medium,” Reprod. Fertil. Dev., 8:1199-1205 (1996). mBECM supplemented with 10% (v/v) FBS was used for co-culturing inseminated oocytes with CGC. Osmolarity of the medium was maintained within the range of 265-290 mOsm.
# All cumulus-oocyte complexes (COC) were collected in Madison, Wis. (BOMED, Inc.) and were shipped in 2 ml of maturation medium in a battery powered incubator via overnight express mail service. Oocytes matured during transit and arrived within 24 h after exposure to maturation medium, pre-equilibrated at 39° C. in 5% CO2 in air. At 22 to 24 h after exposure to the medium, the COCs were inseminated in vitro as described in J. Lim et al., “Intracytoplasmic glutathione concentration and the role of β-mercaptoethanol in preimplantation development of bovine embryos,” Theriogenology, 46:429-439 (1996). At 18 h post-insemination, COCs were cultured in groups (28-40 embryos) in a 4-well multidish (Nunc, Roskilde, Denmark) containing 0.8-ml of mBECM. Embryos were dislodged from CGC at 36 to 48 h post-insemination.
# In Example 9, IVF embryos were cultured in MBECM supplemented as follows: 1) no addition (control), 2) Hb (1 μg/ml), 3) Hb plus L-NAME (1 nM), and 4) Hb plus L-NAME (1000 nM). Embryonic development was evaluated up to 192 h post-insemination. A total of 384 oocytes were inseminated, and were randomly and equally allotted to 4 replicates.
# Embryos developed to the 2-cell, 8-cell, 16-cell, morula, and blastocyst stages at the pertinent observation times were individually scored ‘1’ (developed). Embryos that had not developed to these stages at the same times were scored ‘0’ (non-developed). Sums of the scores at each stage of development were evaluated by analysis of variance using a general linear model (PROC-GLM) in the SAS statistical programming package (1991). In Example 8, the combined effects of Hb addition and month of oocyte collection were first examined in a 2×7 factorial arrangement. Overall differences in embryonic development in Hb-free and Hb-containing culture systems were further evaluated. […] Differences were regarded as statistically significant where P values were less than 0.05.
compound,measurement,setting,value
"COC(=O)[C@@H](N)CCCN=C(N)N[N+](=O)[O-].Cl [L-NAME, N^G-Lω-nitro-L-arginine methyl ester hydrochloride]",Number of embryos developed to 2-cell,L-NAME 1 nM with Hb 1 μg/ml,78
same,Number of embryos developed to 8-cell,L-NAME 1 nM with Hb 1 μg/ml,60
same,Number of embryos developed to 16-cell,L-NAME 1 nM with Hb 1 μg/ml,46
same,Number of embryos developed to Morula,L-NAME 1 nM with Hb 1 μg/ml,38
same,Number of embryos developed to Blastocyst,L-NAME 1 nM with Hb 1 μg/ml,26
same,Least square mean of embryos developed to 2-cell,L-NAME 1 nM with Hb 1 μg/ml,0.813
same,Least square mean of embryos developed to 8-cell,L-NAME 1 nM with Hb 1 μg/ml,0.625
same,Least square mean of embryos developed to 16-cell,L-NAME 1 nM with Hb 1 μg/ml,0.479
same,Least square mean of embryos developed to Morula,L-NAME 1 nM with Hb 1 μg/ml,0.396
same,Least square mean of embryos developed to Blastocyst,L-NAME 1 nM with Hb 1 μg/ml,0.271
same,Number of embryos developed to 2-cell,L-NAME 1000 nM with Hb 1 μg/ml,70
same,Number of embryos developed to 8-cell,L-NAME 1000 nM with Hb 1 μg/ml,50
same,Number of embryos developed to 16-cell,L-NAME 1000 nM with Hb 1 μg/ml,40
same,Number of embryos developed to Morula,L-NAME 1000 nM with Hb 1 μg/ml,28
same,Number of embryos developed to Blastocyst,L-NAME 1000 nM with Hb 1 μg/ml,19
same,Least square mean of embryos developed to 2-cell,L-NAME 1000 nM with Hb 1 μg/ml,0.729
same,Least square mean of embryos developed to 8-cell,L-NAME 1000 nM with Hb 1 μg/ml,0.521
same,Least square mean of embryos developed to 16-cell,L-NAME 1000 nM with Hb 1 μg/ml,0.416
same,Least square mean of embryos developed to Morula,L-NAME 1000 nM with Hb 1 μg/ml,0.292
same,Least square mean of embryos developed to Blastocyst,L-NAME 1000 nM with Hb 1 μg/ml,0.198
same,further stimulation of embryonic development to the blastocyst stage,"L-NAME added to culture medium containing Hb, P>0.07",did not further stimulate
